Assay results published in patent publication US10597388B2, “Pyridazinone herbicides” (FMC CORPORATION, priority 2014, dated 2020).

Experiments:
Experiment in all cases: Test D controlled growth environment herbicide test, pre- and postemergence
Assay type in all cases: in vivo
[1] = tested on: barley, spring (spring barley, Hordeum vulgare)
Outline: (§1)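 Pre-emergence: seeds sown in silt loam soil were sprayed with compound in a non-phytotoxic solvent mix containing surfactant. Post-emergence: plants at 2 to 18 cm (1- to 4-leaf stage) in peat moss/vermiculite medium got the same formulation. Visual 0–100 rating versus controls after 14 to 21 d.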

[2] = tested on: oilseed rape (Brassica napus)
Outline: as §1

[3] = tested on: buckwheat, wild (wild buckwheat, Polygonum convolvulus)
Outline: as §1

[4] = tested on: field violet (Viola arvensis)
Outline: as §1

[5] = tested on: oat, wild (wild oat, Avena fatua)
Outline: as §1

[6] = tested on: chickweed (common chickweed, Stellaria media)
Outline: as §1

[7] = tested on: pigweed (Amaranthus retroflexus)
Outline: as §1

[8] = tested on: galium (catchweed bedstraw, Galium aparine)
Outline: as §1

[9] = tested on: wheat, winter (winter wheat, Triticum aestivum)
Outline: as §1

kochia (Kochia scoparia) = tested on: kochia (Kochia scoparia)
Outline: as §1

[10] = tested on: wheat, spring (spring wheat, Triticum aestivum)
Outline: as §1

[11] = tested on: canarygrass (Phalaris minor)
Outline: as §1

[12] = Postemergence, 31 g ai/ha, scale 0 to 100 (0 no effect, 100 complete control)
[13] = Postemergence, 125 g ai/ha, visual rating on scale 0 (no effect) to 100 (complete control), 14 to 21 d
[14] = Postemergence, 250 g ai/ha, scale 0 to 100 (0 no effect, 100 complete control)
[15] = Preemergence, 62 g ai/ha, scale 0 to 100 (0 no effect, 100 complete control)
[16] = Preemergence, 125 g ai/ha, scale 0 to 100 (0 no effect, 100 complete control)
[17] = Preemergence, 250 g ai/ha, scale 0 to 100, 0 no effect, 100 complete control
[18] = postemergence, 62 g ai/ha, scale 0 to 100, 0 no effect, 100 complete control

Cc1cc(C)c2sc(C)c(-c3c(O)c(C)nn(C)c3=O)c2c1 [Compound 2, 5-hydroxy-2,6-dimethyl-4-(2,5,7-trimethylbenzo[b]thien-3-yl)-3(2H)-pyridazinone]
10: Plant response rating, Buckwheat, Wild [3, 15] | Plant response rating, Wheat, Winter [9, 14] | Plant response rating, Wheat, Spring [10, 13] | Plant response rating, Wheat, Spring [10, 17]
25: Plant response rating (scale of 0 to 100), Pigweed ([7]; Preemergence, 31 g ai/ha) | Plant response rating, Wheat, Spring [10, 14] | Canarygrass plant response rating [11, 12]
80: Plant response rating, Field Violet [4, 14] | Plant response rating (scale of 0 to 100), Oat, Wild ([5]; Preemergence, 31 g ai/ha) | Plant response rating, Oat, Wild [5, 18] | Plant response rating, Pigweed [7, 18]
20: Oilseed Rape plant response rating [2, 12] | Plant response rating, Oilseed Rape [2, 16] | Plant response rating, Kochia (kochia (Kochia scoparia); [17])
90: Plant response rating, Oat, Wild [5, 13] | Plant response rating, Oat, Wild [5, 15] | Plant response rating (scale of 0 to 100), Chickweed ([6]; Preemergence, 31 g ai/ha) | Plant response rating, Canarygrass [11, 17]
60: Field Violet plant response rating [4, 12] | Plant response rating, Kochia (kochia (Kochia scoparia); [18]) | Plant response rating, Canarygrass [11, 15]
5: Plant response rating, Barley, Spring [1, 13] | Plant response rating, Barley, Spring [1, 14] | Plant response rating, Wheat, Winter [9, 13] | Plant response rating, Wheat, Winter [9, 17] | Plant response rating, Wheat, Spring [10, 16]
100: Plant response rating, Buckwheat, Wild [3, 13] | Plant response rating, Buckwheat, Wild [3, 14] | Plant response rating, Buckwheat, Wild [3, 16] | Plant response rating, Buckwheat, Wild [3, 17] | Plant response rating, Field Violet [4, 15] | Plant response rating, Field Violet [4, 16] | Plant response rating, Field Violet [4, 17] | Plant response rating, Oat, Wild [5, 14] | Plant response rating, Oat, Wild [5, 17] | Plant response rating, Chickweed [6, 13] | Plant response rating, Chickweed [6, 14] | Plant response rating, Chickweed [6, 15] | Plant response rating, Chickweed [6, 16] | Plant response rating, Chickweed [6, 17] | Plant response rating, Pigweed [7, 17] | Plant response rating, Galium [8, 13] | Plant response rating, Galium [8, 14] | Plant response rating (scale of 0 to 100), Galium ([8]; Preemergence, 31 g ai/ha) | Plant response rating, Galium [8, 16] | Plant response rating, Galium [8, 17] | Plant response rating, Galium [8, 18]
0: Plant response rating, Barley, Spring [1, 12] | Plant response rating (scale of 0 to 100), Barley, Spring ([1]; Preemergence, 31 g ai/ha) | Plant response rating, Barley, Spring [1, 15] | Plant response rating, Barley, Spring [1, 16] | Barley, Spring plant response rating [1, 17] | Plant response rating, Barley, Spring [1, 18] | Plant response rating (scale of 0 to 100), Oilseed Rape ([2]; Preemergence, 31 g ai/ha) | Plant response rating, Oilseed Rape [2, 15] | Wheat, Winter plant response rating [9, 12] | Plant response rating (scale of 0 to 100), Wheat, Winter ([9]; Preemergence, 31 g ai/ha) | Plant response rating, Wheat, Winter [9, 15] | Plant response rating, Wheat, Winter [9, 16] | Plant response rating, Wheat, Winter [9, 18] | Plant response rating (scale of 0 to 100), Kochia (kochia (Kochia scoparia); Preemergence, 31 g ai/ha) | Plant response rating, Kochia (kochia (Kochia scoparia); [15]) | Plant response rating, Kochia (kochia (Kochia scoparia); [16]) | Wheat, Spring plant response rating [10, 12] | Plant response rating (scale of 0 to 100), Wheat, Spring ([10]; Preemergence, 31 g ai/ha) | Plant response rating, Wheat, Spring [10, 15] | Plant response rating, Wheat, Spring [10, 18]
65: Plant response rating, Pigweed [7, 16] | Plant response rating, Kochia (kochia (Kochia scoparia); [13])
70: Plant response rating, Oilseed Rape [2, 14] | Pigweed plant response rating [7, 12] | Plant response rating, Kochia (kochia (Kochia scoparia); [14])
40: Plant response rating, Oilseed Rape [2, 17] | Plant response rating (scale of 0 to 100), Canarygrass ([11]; Preemergence, 31 g ai/ha) | Plant response rating, Canarygrass [11, 18]
50: Plant response rating, Pigweed [7, 15] | Kochia plant response rating (kochia (Kochia scoparia); [12])
45: Plant response rating, Oilseed Rape [2, 18]
55: Plant response rating, Oilseed Rape [2, 13] | Oat, Wild plant response rating [5, 12] | Plant response rating, Canarygrass [11, 13]
85: Buckwheat, Wild plant response rating [3, 12] | Plant response rating, Field Violet [4, 18] | Chickweed plant response rating [6, 12] | Plant response rating, Pigweed [7, 13] | Galium plant response rating [8, 12] | Plant response rating, Galium [8, 15] | Plant response rating, Canarygrass [11, 16]
95: Plant response rating, Buckwheat, Wild [3, 18] | Plant response rating (scale of 0 to 100), Field Violet ([4]; Preemergence, 31 g ai/ha) | Plant response rating, Oat, Wild [5, 16] | Plant response rating, Chickweed [6, 18] | Plant response rating, Pigweed [7, 14]
75: Plant response rating, Field Violet [4, 13] | Plant response rating, Canarygrass [11, 14]
